Test results taken from article PMC8000084, “Peptide Dendrimers with Non-Symmetric Bola Structure Exert Long Term Effect on Glioblastoma and Neuroblastoma Cell Lines” (Biomolecules, 2021).

Legend:
[1] = Cupric reducing antioxidant capacity (CUPRAC)
Description: The CUPRAC method was performed according to procedure described by Apak et al. with small modifications, which was necessary to correlate this method to other used assays. CUPRAC working solution was prepared freshly each time. The stock solution including 0.96 mL ammonium acetate buffer (1 M, pH 7), 0.96 mL 7.5 mM neocuproine solution in MeOH, and 0.96 mL of 10 mM CuCl2 in water was kept away from light. Then, 240 μL dendrimer, Trolox, or solvent (blank sample) standard solution was added to CUPRAC stock solution, and after 25 min, absorbance at 450 nm was recorded. Results were expressed as μM Trolox L^−1. All determinations were carried out in triplicate.

[2] = Ferric reducing antioxidant power (FRAP); conditions: pH 3.6, 593 nm after 15 min; Figure 6
Description: The FRAP assay was performed according to previously described method with some modifications. FRAP working solution was prepared freshly each time. The stock solution included 2.40 mL acetate buffer (300mM, pH 3.6), 0.24 mL 10 mM TPTZ solution in 40 mM HCl, and 0.24 mL of 20 mM FeCl3 × 6H2O in water. The mixture was kept away from light and warmed at 37 °C before using. Then, 240 μL sample Troloxor solvent (blank sample) standard solution was added to FRAP stock solution. The absorbance was measured at 593 nm after 15 min. Final concentration of methanolic solutions of the studied dendrimers were in range 0–24 μM and Trolox® solutions from 0 to 50 μM.All determinations were carried out in triplicate.

[3] = tested on: rat primary cerebellar granule cells (CGC); type: cell-based; conditions: 5 μM, 30 min exposure in Locke 25, PI staining 24 h later; Figure 3
Description: Primary CGC cultures were prepared from seven-day-old Wistar rats of both sexes as previously described. Procedures using rat pups were performed in accordance with international standards of animal care guidelines and were approved by the Local Care of Experimental Animals Committee. The culture was incubated in growth basal Eagle’s medium (Gibco, Thermo Fisher Scientific, Grand Island, NY, USA), supplemented with 10% fetal calf serum, 25 mM KCl, 4 mM glutamine, penicillin (50 U/mL), and streptomycin ([…]) (Sigma-Aldrich, Poznan, Poland). The density of the cell suspension seeded on the 24-well plates, coated with poly-L-lysine, was 1 × 10^6 cells per well. […]
Stock solutions were prepared by dissolving dendrimers in dimethylsulfoxide (DMSO) (Sigma-Aldrich, Poznan, Poland), and subsequent dilutions were made in cell medium. The effect of the dendrimers on CGC viability was assessed 24 h after a 30 min exposure of the cultures to the tested compounds using propidium iodide (PI) staining. […] Then, the cells were fixed with 80% methanol, stained with PI (0.5 µg/mL), and viable and dead neurons were counted using an Axiovert fluorescence microscope (Carl Zeiss AG, Germany). The viability of the neurons was determined as percentages of live cells in proportion to all cells.

[4] = 5.5 μM; cited from earlier work
Description: The results of DPPH and ABTS tests for the (+)10-charged 16, 18, 20, 22, 24, and 26 bola dendrimers at three concentrations (3.78, 7.69, and 15.38 μM) are shown in Figure 5, whereas results of FRAP and CUPRAC tests are shown in Figure 6. Data include also two neutral derivatives 19 and 25 for the PABA and PAS series, respectively. Considering TEAC values, dendrimers show different level of scavenging capacity in both tests, being better scavengers of radical cations than single electron bearing neutral radicals. The highest cationic radical scavenging ability in ABTS test was found for […] ...

Nc1ccc(S(=O)(=O)O)cc1 [p-aminobenzenesulfonic acid]
redox potential / reducing capacity in CUPRAC test (in words) ([1]; pH 7, 450 nm after 25 min, Figure 6): insignificant
redox potential / reducing capacity in FRAP test (in words) [2]: insignificant

Nc1ccc(S(=O)(=O)NCCCCCOc2cc(OCCNS(=O)(=O)c3ccc(N)cc3)cc(C(=O)NCCNC(=O)[C@H](Cc3c[nH]c4ccccc34)NC(=O)[C@H](CCCCNC(=O)c3cc(OCCNC(=O)[C@@H](N)CCCCNC(=O)[C@@H](N)Cc4c[nH]c5ccccc45)cc(OCCNC(=O)[C@@H](N)CCCCNC(=O)[C@@H](N)Cc4c[nH]c5ccccc45)c3)NC(=O)c3cc(OCCNC(=O)[C@@H](N)CCCCNC(=O)[C@@H](N)Cc4c[nH]c5ccccc45)cc(OCCNC(=O)[C@@H](N)CCCCNC(=O)[C@@H](N)Cc4c[nH]c5ccccc45)c3)c2)cc1 [compound 26]
enhancement of antioxidant power in transition between FRAP/CUPRAC model ([1]; 3.78 and 7.69 μM): ~11 fold
viable CGC cells conserved [3]: 55–85%

O=C(O)/C=C/c1ccc(O)c(O)c1 [caffeic acid]
Trolox equivalence in DPPH test [4]: 6–7
